Results on 19 compounds are retold here after ChEMBL document CHEMBL1201862, “PubChem BioAssay data set” (2004).

Calls of active or inactive are those of the source. Bounds are passed on as bounds.

Experiment [1] can be described thus: microbe, parasite or virus in culture. Type of experiment: functional. To be noted: Mycobacterium tuberculosis.
Experiment [2] deals with Cytochrome P450 2C9 (Homo sapiens, UniProt P11712).
Experiment [3] has as its target Cytochrome P450 2D6 (Homo sapiens, UniProt P10635).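 Also: CYP2D6 member of a cytochrome P450 panel assay.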
The target in experiment [4] is T1, Caspase-3 (Homo sapiens, UniProt P42574).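 Also: Dose-response selectivity test against caspase-3 for candidate inhibitors of sentrin-specific proteases (SENPs).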
T1 sequence (P42574 whole entry): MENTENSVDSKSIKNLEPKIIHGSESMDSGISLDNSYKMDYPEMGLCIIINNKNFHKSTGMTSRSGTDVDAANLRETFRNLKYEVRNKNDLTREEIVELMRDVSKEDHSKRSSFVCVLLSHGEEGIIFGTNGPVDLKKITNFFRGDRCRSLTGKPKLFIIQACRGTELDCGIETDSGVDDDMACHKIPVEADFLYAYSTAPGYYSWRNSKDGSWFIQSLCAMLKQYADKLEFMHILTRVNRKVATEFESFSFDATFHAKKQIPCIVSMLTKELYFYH
Type of experiment: functional.

Experiment [5] has as its target T2, Sentrin-specific protease 7 (Homo sapiens, UniProt Q9BQF6).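 Also: Luminescence-based dose-response confirmation of ultra-high-throughput screening hits, measuring inhibition of SENP7.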
T2 sequence (Q9BQF6 whole entry): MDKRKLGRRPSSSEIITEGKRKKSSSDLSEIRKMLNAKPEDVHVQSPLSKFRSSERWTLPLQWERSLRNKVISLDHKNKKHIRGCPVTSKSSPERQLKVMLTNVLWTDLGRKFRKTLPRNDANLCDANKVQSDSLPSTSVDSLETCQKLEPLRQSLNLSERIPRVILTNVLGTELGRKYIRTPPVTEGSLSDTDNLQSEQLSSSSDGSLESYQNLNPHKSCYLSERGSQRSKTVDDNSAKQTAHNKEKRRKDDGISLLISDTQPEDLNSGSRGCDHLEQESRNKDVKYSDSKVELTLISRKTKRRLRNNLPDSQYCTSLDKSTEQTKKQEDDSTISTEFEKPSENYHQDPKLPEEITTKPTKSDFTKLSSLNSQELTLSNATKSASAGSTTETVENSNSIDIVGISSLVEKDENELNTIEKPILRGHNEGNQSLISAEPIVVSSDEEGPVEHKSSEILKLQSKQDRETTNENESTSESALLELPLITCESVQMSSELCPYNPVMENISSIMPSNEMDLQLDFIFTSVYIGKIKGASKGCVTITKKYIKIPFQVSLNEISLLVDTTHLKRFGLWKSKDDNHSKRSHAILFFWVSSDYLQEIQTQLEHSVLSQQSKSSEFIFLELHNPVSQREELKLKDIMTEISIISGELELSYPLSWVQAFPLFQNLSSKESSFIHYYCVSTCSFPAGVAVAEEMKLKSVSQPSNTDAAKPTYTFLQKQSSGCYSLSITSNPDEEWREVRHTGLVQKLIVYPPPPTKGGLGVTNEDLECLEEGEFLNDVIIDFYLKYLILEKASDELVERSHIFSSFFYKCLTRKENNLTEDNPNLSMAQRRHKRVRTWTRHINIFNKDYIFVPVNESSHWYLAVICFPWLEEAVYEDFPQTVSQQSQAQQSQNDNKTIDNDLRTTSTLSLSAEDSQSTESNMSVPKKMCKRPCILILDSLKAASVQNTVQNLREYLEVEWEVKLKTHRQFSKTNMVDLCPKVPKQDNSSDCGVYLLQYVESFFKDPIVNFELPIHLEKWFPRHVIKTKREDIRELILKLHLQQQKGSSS
Type of experiment: functional.

The target in experiment [6] is T3, Sentrin-specific protease 6 (Homo sapiens, UniProt Q9GZR1).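 Also: Luminescence-based dose-response confirmatory assay of SENP6 inhibition, following up an ultra-high-throughput screen.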
T3 sequence (Q9GZR1 whole entry): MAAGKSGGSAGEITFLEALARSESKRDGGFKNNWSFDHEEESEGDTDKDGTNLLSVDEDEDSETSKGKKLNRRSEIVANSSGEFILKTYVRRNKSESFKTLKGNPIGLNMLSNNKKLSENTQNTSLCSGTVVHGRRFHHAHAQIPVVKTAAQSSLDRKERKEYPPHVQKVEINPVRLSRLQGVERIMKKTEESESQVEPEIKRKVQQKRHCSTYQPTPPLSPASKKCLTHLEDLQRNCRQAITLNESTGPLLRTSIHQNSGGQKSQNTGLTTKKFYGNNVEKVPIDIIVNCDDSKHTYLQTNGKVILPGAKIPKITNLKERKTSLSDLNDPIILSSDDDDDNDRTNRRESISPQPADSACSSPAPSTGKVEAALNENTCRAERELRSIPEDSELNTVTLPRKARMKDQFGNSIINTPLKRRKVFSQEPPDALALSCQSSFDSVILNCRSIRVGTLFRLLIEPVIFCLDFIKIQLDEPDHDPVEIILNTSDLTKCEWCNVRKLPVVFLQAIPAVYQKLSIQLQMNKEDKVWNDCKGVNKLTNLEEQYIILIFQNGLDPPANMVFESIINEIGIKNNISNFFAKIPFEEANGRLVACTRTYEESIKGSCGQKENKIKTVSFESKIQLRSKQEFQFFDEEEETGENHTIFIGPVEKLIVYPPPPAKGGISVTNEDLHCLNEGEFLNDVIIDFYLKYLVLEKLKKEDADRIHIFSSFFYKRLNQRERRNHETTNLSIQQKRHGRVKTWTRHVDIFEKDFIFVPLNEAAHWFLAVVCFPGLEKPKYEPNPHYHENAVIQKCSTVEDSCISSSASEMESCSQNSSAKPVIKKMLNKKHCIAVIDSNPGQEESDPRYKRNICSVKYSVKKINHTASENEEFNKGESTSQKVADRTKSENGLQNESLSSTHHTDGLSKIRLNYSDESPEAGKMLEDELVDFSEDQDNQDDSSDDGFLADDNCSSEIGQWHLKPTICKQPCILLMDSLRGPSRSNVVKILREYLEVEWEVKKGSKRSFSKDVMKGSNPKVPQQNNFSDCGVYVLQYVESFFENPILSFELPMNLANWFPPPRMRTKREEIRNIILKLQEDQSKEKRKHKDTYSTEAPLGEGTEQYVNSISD
Type of experiment: functional.

Experiment [7] deals with T4, Sentrin-specific protease 8 (Homo sapiens, UniProt Q96LD8).
T4 sequence (Q96LD8 whole entry): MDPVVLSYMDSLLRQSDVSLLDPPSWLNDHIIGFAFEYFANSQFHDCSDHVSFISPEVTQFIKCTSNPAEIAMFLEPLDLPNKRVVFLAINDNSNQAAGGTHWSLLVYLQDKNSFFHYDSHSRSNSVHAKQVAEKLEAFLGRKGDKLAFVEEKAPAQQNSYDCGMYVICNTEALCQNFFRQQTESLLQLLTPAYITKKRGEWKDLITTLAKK
Type of experiment: functional.

In experiment [8] the target is T5, Heat shock factor protein 1 (Mus musculus, UniProt P38532).
T5 sequence (P38532 whole entry): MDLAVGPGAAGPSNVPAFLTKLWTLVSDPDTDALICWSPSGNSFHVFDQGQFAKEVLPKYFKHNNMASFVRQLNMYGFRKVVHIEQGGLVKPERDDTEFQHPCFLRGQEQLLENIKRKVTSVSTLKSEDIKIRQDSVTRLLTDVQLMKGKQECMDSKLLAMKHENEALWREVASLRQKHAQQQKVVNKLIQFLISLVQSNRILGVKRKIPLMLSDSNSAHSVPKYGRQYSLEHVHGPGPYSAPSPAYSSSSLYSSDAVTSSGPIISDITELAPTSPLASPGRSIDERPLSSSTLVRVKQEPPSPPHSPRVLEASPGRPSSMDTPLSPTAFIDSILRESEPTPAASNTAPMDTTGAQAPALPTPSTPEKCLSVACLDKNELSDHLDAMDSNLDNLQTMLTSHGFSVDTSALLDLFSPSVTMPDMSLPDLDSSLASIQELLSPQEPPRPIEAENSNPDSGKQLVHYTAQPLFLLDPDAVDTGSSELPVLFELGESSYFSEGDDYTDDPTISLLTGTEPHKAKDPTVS
Description: enhancement of HSF1-driven luciferase signal – cell-based, NIH3T3, luminescence, dose retest, confirmation (AID 435004).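 Also: stress induced by proteasome inhibitor MG132 added 30 min after compound; luciferase reporter driven by HSF1 response element in NIH3T3 cells; actives raise luminescence as potentiators of the MG132 stress response.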 Type of experiment: functional.

The subject of experiment [9] is Streptococcus. Kind of experiment: GAS UMAA2166 growth inhibition – luminescence, BacTiterGlo, counter-screen for streptokinase expression inhibitor project, dose response (AID 1915).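 Also: potency for reduction of bacterial viability or growth.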 Type of experiment: functional, organism-based.
For experiment [10], the target named is T6, Streptokinase A (Streptococcus pyogenes serotype M1, UniProt P10520).
T6 sequence (P10520 whole entry): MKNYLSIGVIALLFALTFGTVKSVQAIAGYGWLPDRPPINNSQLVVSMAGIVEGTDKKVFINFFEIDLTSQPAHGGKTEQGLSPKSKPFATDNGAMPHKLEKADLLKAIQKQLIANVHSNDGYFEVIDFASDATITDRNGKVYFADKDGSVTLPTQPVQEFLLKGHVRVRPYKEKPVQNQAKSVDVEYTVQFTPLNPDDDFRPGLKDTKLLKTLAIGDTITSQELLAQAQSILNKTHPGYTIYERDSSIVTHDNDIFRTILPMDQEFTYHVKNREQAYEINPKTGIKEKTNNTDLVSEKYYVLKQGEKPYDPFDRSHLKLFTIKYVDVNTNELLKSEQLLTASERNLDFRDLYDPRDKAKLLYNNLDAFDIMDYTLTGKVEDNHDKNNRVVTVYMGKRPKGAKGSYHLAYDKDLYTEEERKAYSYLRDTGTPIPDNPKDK
Kind of experiment: viability-normalized secreted streptokinase activity reduction – plasminogen activation absorbance, OD405, dose response (AID 1914).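 Also: secreted streptokinase activity via plasminogen activation per viability signal from cell pellet.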 Type of experiment: functional, Streptococcus pyogenes M1 GAS.

Experiment [11] deals with Streptococcus sp. 'group A'. Description: Streptococcus pyogenes SK(-)GAS viability under kanamycin – luminescence, BacTiterGlo, confirmation, counter-screen for streptokinase expression inhibitor project, dose response (AID 1900). Type of experiment: functional, organism-based.
Experiment [12] in a line: Luminescence Cell-Based Dose Retest to Confirm Inhibitors of Cancer Stem Cells. [Related pubchem assays (depositor defined):AID2717, AID2721]. Type of experiment: functional. To be noted: Homo sapiens.
The subject of experiment [13] is INS1. Description: INS-1E survival protection against cytokine death – cell-based, luminescence, retest, dose response (AID 449756).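 Also: cell death triggered by IL-1 beta plus TNF-alpha plus IFN-gamma mixture; protective hits raise ATP signal compared with cytokine alone wells.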 Type of experiment: functional. As to conditions: Rattus norvegicus.

Sequence of Cytochrome P450 2C9 (P11712 whole entry): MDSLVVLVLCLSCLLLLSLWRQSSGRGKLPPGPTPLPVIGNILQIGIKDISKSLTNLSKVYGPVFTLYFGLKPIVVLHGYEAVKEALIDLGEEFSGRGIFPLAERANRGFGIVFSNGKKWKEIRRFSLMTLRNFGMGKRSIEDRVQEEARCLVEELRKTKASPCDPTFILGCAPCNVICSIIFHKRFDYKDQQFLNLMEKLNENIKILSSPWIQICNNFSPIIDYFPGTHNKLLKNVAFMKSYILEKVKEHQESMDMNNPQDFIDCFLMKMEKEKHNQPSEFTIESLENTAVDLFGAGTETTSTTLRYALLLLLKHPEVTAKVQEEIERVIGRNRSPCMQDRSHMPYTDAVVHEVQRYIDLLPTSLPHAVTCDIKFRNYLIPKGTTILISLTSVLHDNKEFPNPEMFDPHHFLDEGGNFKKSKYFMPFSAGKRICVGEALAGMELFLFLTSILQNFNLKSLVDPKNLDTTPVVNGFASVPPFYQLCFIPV
Sequence of Cytochrome P450 2D6 (P10635 whole entry): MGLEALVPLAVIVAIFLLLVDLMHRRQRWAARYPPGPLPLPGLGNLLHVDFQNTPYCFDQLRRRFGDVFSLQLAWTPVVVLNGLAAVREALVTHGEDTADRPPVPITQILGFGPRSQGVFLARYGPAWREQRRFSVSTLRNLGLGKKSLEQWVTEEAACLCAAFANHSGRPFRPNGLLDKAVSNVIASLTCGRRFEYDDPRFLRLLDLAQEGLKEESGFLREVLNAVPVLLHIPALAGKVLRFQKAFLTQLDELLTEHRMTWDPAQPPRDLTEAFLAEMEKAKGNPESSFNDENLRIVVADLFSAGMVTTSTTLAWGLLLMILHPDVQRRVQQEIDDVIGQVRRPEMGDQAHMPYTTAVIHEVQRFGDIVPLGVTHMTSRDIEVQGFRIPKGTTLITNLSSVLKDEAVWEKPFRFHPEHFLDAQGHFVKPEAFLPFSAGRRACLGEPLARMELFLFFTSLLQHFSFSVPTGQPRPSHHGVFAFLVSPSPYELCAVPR

For the compound `O=S1(=O)N(CCN2CC=C(c3c[nH]c4cc(F)ccc34)CC2)c2cccc3c2N1CCC3`, the CC50 in experiment [1] is > 40 µM (active). Further, the AC50 in experiment [2] was 25.1 µM (inconclusive).
Consider `O=C(c1ccco1)N1CCC2(CC1)CN(Cc1ccncc1)C2`, for which the AC50 in experiment [3] was 12.6 µM (inconclusive).
The same measure, in the same setting: the figure for `O=C(CCN1C(=O)c2ccccc2C1=O)NC(=S)Nc1cccc(Cl)c1` is 0.0447 µM (inconclusive); for `COc1cccc([C@@H]2Oc3ccc(OC)cc3C(=O)[C@H]2O)c1` it is 3.16 µM (inconclusive).
Take `CN(CC(=O)Nc1ccc(Cl)cc1)C(=O)CNC(=O)c1ccc2ccccc2c1`: the IC50 in [4] is 26.4 µM (active); in experiment [5] it was 11.1 µM (active); in [6], > 100 µM (inactive); in experiment [7], > 100 µM (inactive).
As for `CCn1c(-c2ccccc2Cl)nn(CC(=O)Nc2cc(Cl)ccc2Cl)c1=S`, the AC50 in [2] and in experiment [3] was 25.1 µM (inconclusive) in each case.
For the compound `Clc1ccccc1-c1nccc(NCc2ccccc2)n1`, the AC50 in experiment [3] was 39.8 µM (inconclusive).
For the compound `O=c1c2c3c(sc2nc(N2CCNCC2)n1-c1cccc(Cl)c1)CCCCC3`, the CC50 in experiment [1] is 13.6 µM (active).
For `O=C1c2cccc3c([N+](=O)[O-])ccc(c23)C(=O)N1O`, the 50% effective concentration (EC50) was 244 µM (active) in experiment [8], 15.8 µM (active) in experiment [9], > 150 µM (not active) in experiment [10] and 0.999 µM (active) in experiment [11]. Moreover, the CC50 in [1] is 17.8 µM (active).
As to `CCC(=O)Nc1ccc(N2CCN(CC)CC2)c(Cl)c1`, the AC50 in experiment [3] is 0.0447 µM (inconclusive).
Take `Cc1nc2ccc(NC(=O)c3cc(Cl)ccn3)cc2s1`: the IC50 is 3.79 µM (active) in experiment [4], 3.62 µM (active) in experiment [5], 12.9 µM (active) in experiment [6] and 86.4 µM (active) in [7].
For `O=C(Nc1ccc(N2CCN(C(=O)c3ccco3)CC2)cc1)C(c1ccccc1)c1ccccc1`, in [1], the CC50 was > 40 µM (active).
As to `O=C(COC(=O)c1ccc([N+](=O)[O-])s1)NC(=O)NCc1ccccc1`, the IC50 was 13.7 µM (active) in [4], 8.47 µM (active) in experiment [5], 4.59 µM (active) in experiment [6] and 4.28 µM (active) in [7].
On to `Fc1ccccc1SCc1nnc(-c2ccccc2Br)o1`, for which the IC50 is 17.1 µM (active) in experiment [4], 6.47 µM (active) in [5], 12.1 µM (active) in [6] and 14.7 µM (active) in experiment [7].
For `Clc1nc(-c2ccccn2)nc2scc(-c3ccccc3)c12`, in that order: 7.37 µM (active), 3.74 µM (active), 6.7 µM (active) and 7.79 µM (active).
Consider `CN(C)c1ccc(-c2cncnc2NCc2cccnc2)cc1`, for which the AC50 is 0.501 µM (inconclusive) in experiment [2] and 12.6 µM (inconclusive) in experiment [3].
For `Oc1ccc(/C=C/c2ccnc3ccccc23)cc1`, the IC50 in experiment [4] was 34.5 µM (active); in [5] it was 9.49 µM (active); in experiment [6] it was > 100 µM (inactive); in experiment [7], > 100 µM (inactive).
As for `CCCC[C@@H](CN[C@H](C)CNC)NCC1CCC(C(C)(C)C)CC1` (some centres undefined), the AC50 is 6.55 µM (active) in experiment [12] and 6.4 µM (active) in experiment [13]. The CC50 in [1] is 12.7 µM (active).
For the compound `COc1ccccc1N1CCN(/N=C/c2ccc([N+](=O)[O-])cc2)CC1`, the IC50 was 2.68 µM (active) in experiment [4], 2.17 µM (active) in experiment [5], 3.64 µM (active) in experiment [6] and > 100 µM (inactive) in [7].
